PMC8346995, “Synthesis, Characterization, In Vitro Anticancer Potentiality, and Antimicrobial Activities of Novel Peptide–Glycyrrhetinic-Acid-Based Derivatives” (Molecules, 2021)
≈ marks a conversion by molar mass, not a printed value. Residues, ends and D or L forms follow the SMILES beside them. *: point of attachment. X1 = CC1(C(=O)*)CCC2(C)CCC3(C)C(=CC(=O)C4C5(C)CCC(O)C(C)(C)C5CCC43C)C2C1

Experiments:
Bax = test: Estimation of Bax level in MCF-7 cells; format: cell-based, human; settings: MCF-7 cells treated at IC50 for 24 h; untreated 65.50 Pg/mL
Description: (§1) The extrinsic pathway (death receptor) and the intrinsic pathway (mitochondrial route) are the main two routes that control a cell during apoptosis. The Bcl-2 protein introduces a central role in tumor growth or suppression the intrinsic apoptotic pathway. Conversely, the pro-apoptotic Bax acts essentially to enhance the process of cell apoptosis. Increasing the level of the anti-apoptotic Bcl-2 within the cancerous cell boosts the cell survival through inhibiting apoptosis. Accordingly, a balance situation between these two proteins determines the cell fate. Furthermore, p53 serves as a transcription factor acting as a tumor suppressor protein. This protein is expressed due to various cellular stresses such as DNA disruption. It is usually mutated in human cancers. The p53 pathway mediates either cell cycle arrest or apoptosis controlling the expression of Bcl-2 and Bax genes. Thus, since compound 5 produced the most promising cytotoxic activity against breast cancer cell lines with a safety profile against the normal cells, it was of interest to study its impact on the regulation of the oncogenic markers Bax, Bcl-2, and p53. […]
The levels of Bax protein were evaluated according to the reported method. […] Then, the reaction was terminated by adding acid, and optical density of the produced color was measured at 450 nm.

[1] = tested on: human colon HCT-116 cancer cell line; test: MTT cytotoxicity assay, colon HCT-116 cancer cell line; settings: for IC50: Homo sapiens, HCT-116, read-out: IC50 (µg/mL) ± SD HCT-116
Experimental: (§2) Accordingly, all the newly synthesized GA-based peptides except 1 and 6 were screened for their cytotoxicity against three different human cancer cell lines: MCF-7, HCT-116, and HepG-2 cell lines at different concentrations (10, 5, 2.5, 1.25, and 0.625 µg/mL).
(§3) Human breast MCF-7, colon HCT-116, and liver HepG-2 carcinoma cell line were taken from Vacsera (Giza, Egypt). The culture was retained in RPMI 1640 medium with 1% antibiotic–antimycotic mixture (25 μg/mL amphotericin B, 10,000 μg/mL streptomycin sulfate, and 10,000 U/mL potassium penicillin), 1% L-glutamine, and complemented by 10% heat inactivated fetal bovine serum. […] This experiment was carried out according to the reported MTT assay method, and the absorbance was measured at 595 nm.

[2] = tested on: human liver cancer (HepG-2) cell line; test: MTT cytotoxicity assay, liver HepG-2 cancer cell line; format: cell-based; settings: Homo sapiens, HepG2; MTT, mean of three replicates; read-out: IC50 (µg/mL) ± SD HepG-2
Experimental: as §2, §3

caspase-3 = test: Human CASP-3 (caspase-3) estimation in MCF-7 cells; format: cell-based; settings: MCF-7 cells treated at IC50 for 24 h; untreated 162 ng/mL
[3] = tested on: human breast MCF-7 cancer cell line; test: MTT cytotoxicity assay, breast MCF-7 cancer cell line; format: cell-based; settings: Homo sapiens, MCF7; MTT, mean of three replicates; read-out: IC50 (µg/mL) ± SD MCF-7
Experimental: as §2, §3

caspase-7 = test: Human CASP-7 (caspase-7) estimation in MCF-7 cells (ELISA); format: cell-based; settings: for level of caspase-7: MCF-7 cells treated at IC50 for 24 h, untreated 0.3 ng/mL
Experimental: (§4) Caspases are a family of cysteine proteases that are responsible for launching the programmed cell death (apoptosis). […] Cell shrinkage, chromatin condensation, and DNA fragmentation are all apoptosis events, which need the involvement of caspase-7and caspase-3 [48, 54, 56].
The micro-ELISA plate provided in this kit pre-coated with CASP-7-specific antibody. A biotinylated CASP7 antibody and Avidin–horseradish p eroxidase (HRP) conjugate was added. Aspire the excess components. The substrate solution was added. Wells that contain CASP-7, biotinylated detection antibody, and Avidin-HRP conjugate will appear blue in color. The color turns yellow followed the addition of sulfuric acid solution. The optical density (OD) was measured at a wavelength of 450 nm ± 2 nm.

[4] = tested on: Proteus vulgaris RCMB 010085; test: Well diffusion assay, Proteus vulgaris; format: cell-based; settings: Proteus vulgaris RCMB 010085, well diffusion
Experimental: (§5) The newly synthesized peptides 1–8 (compound 6 was not tested) was evaluated for their antimicrobial activity of against three pathogenic Gram-positive bacteria (Staphylococcus aureus ATCC25923, Streptococcus pneumoniaRCMB 010010, and Micrococcus Luteus), three pathogenic Gram-negative bacteria viz. Escherichia coli ATCC25922, Pseudomonas aeruginosa ATCC7853, and Proteus vulgaris RCMB 010085, and the yeast Candida albicans using the well diffusion method. […] The obtained data were documented for each derivative as the average diameter of the inhibition zones (IZ) in mm for the bacterial or the yeast growth around the discs (Table 2). […] Although Micrococcus Luteus bacteria is a normal commensal of human skin and the upper respiratory tract, it acts as an opportunistic pathogen and has been associated with various diseases including meningitis, septic arthritis, and endocarditis. […] Antimicrobial activity of the tested chemical peptides was determined by the well diffusion method for pathogenic bacteria having Gram-positive bacteria (Staphylococcus aureus ATCC25923, Streptococcus pneumonia, and Micrococcus luteus) and Gram-negative bacteria (Escherichia coli ATCC25922, Pseudomonas aeruginosa ATCC7853, and Proteus sp.) and Candida albicans as human pathogen yeast using the well diffusion method.

Candida albicans = test: Well diffusion assay, Candida albicans; format: cell-based
Experimental: as §5

[5] = tested on: Escherichia coli ATCC25922; test: Well diffusion assay, Escherichia coli; format: cell-based
Experimental: as §5

[6] = tested on: Staphylococcus aureus ATCC25923; test: Well diffusion assay, Staphylococcus aureus; format: cell-based
Experimental: as §5

[7] = tested on: human normal skin fibroblasts cell line BJ-1; test: Cytotoxicity against normal skin fibroblasts BJ-1; format: cell-based; settings: human, 10 µg/mL
Experimental: The frequency and severity of side effects to normal cells at therapeutic levels is one of the most critical factors that distinguish different anticancer drugs from each other. Accordingly, the GA peptides 1–8 were furthermore screened for their cytotoxicity at 10 µg/mL against the human normal skin fibroblasts cell line BJ-1 to determine their safety upon normal cells (Figure 4).

Tubulin Beta (TUBb) = target: T1, Tubulin Beta (TUBb) (Homo sapiens, UniProt P07437); test: ELISA kit for Tubulin Beta (TUBb), tubulin polymerization in MCF-7 cells; format: cell-based; settings: read-out: inhibition of tubulin polymerization IC50 (tubulin B) (converted)
T1 construct: endogenous in cells; host or cells: MCF-7
T1 sequence (P07437 whole entry): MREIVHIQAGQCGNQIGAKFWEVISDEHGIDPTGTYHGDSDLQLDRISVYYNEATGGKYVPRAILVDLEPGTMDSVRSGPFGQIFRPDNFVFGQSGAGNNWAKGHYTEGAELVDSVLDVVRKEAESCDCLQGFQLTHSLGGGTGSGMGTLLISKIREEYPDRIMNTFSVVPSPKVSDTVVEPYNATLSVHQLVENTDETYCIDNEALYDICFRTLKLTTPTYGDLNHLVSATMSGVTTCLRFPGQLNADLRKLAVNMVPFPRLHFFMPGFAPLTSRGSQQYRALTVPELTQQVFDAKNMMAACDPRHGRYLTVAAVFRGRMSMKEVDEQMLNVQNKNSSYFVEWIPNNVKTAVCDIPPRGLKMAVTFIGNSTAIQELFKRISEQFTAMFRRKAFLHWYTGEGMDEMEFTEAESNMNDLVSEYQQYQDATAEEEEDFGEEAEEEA
T1 sequence (P68363 whole entry partner): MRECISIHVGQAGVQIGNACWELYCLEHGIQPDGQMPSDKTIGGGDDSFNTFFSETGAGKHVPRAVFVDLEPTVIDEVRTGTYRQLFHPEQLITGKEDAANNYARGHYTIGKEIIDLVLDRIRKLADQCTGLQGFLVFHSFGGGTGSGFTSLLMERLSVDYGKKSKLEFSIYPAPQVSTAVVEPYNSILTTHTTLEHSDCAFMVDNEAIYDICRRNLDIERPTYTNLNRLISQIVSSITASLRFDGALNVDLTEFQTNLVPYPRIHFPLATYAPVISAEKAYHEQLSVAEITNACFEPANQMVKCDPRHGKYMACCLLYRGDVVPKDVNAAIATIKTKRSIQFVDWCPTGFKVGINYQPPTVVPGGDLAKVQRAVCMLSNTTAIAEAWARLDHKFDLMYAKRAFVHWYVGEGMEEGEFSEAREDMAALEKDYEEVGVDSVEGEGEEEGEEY
Description: as §4

[8] = tested on: Streptococcus pneumonia RCMB 010010; test: Well diffusion assay, Streptococcus pneumonia; format: cell-based; settings: Streptococcus pneumonia RCMB 010010, well diffusion
Experimental: as §5

[9] = tested on: Pseudomonas aeruginosa ATCC7853; test: Well diffusion assay, Pseudomonas aeruginosa; format: cell-based
Experimental: as §5

Bcl-2 = test: Estimation of Bcl-2 level in MCF-7 cells; format: cell-based, human; settings: MCF-7 cells treated at IC50 5 μg/mL for 24 h; untreated 7.20 ng/mL
Description: as §1
The samples and standards having Bcl-2 were estimated as previously mentioned. […] Then, the reaction was terminated by adding acid, and the absorbance was measured at 450 nm.

Human p53 = test: Estimation of human p53 level in MCF-7 cells (ELISA); format: cell-based
Description: as §1, with “genes.” for “genes. Thus, since compound 5 produced the most promising cytotoxic activity against breast cancer cell lines with a safety profile against the normal cells, it was of interest to study its impact on the regulation of the oncogenic markers Bax, Bcl-2, and p53.”
Human p53 present in MCF-7 cells was determined; using Human p53 ELISA-Kit (CS0070 Sigma) read using spectrophotometer at 450 nm against untreated control cells (negative control) and doxorubicin (positive control) applying the standard protocols of the manufacturers. […] Then, the reaction was terminated by adding acid, and the absorbance was measured at 450 nm.

Micrococcus Luteus = test: Well diffusion assay, Micrococcus Luteus; format: cell-based
Experimental: as §5

MCF-7 cells = test: DNA fragmentation through DPA assay in MCF-7 cells; format: cell-based, human; settings: treated MCF-7 cells
Experimental: as §4
Assessment of DNA fragmentation of the cells was done, as described by the reported method. Briefly, the cells were lysed for 15 min on ice with 0.5% (v/v) Triton X-100, 20 mM EDTA, and […] Tris (pH 8.0). Then, the cells were centrifuged to separate intact chromatin from DNA fragments for 20 min, at 27,000 Xg. Measurement of the amount of DNA was done using a diphenylamine reagent, and the optical density was measured at 600 nm.

Compound: COc1cccc2c1C(=O)c1c(O)c3c(c(O)c1C2=O)C[C@@](O)(C(=O)CO)C[C@@H]3O[C@H]1C[C@H](N)[C@H](O)[C@H](C)O1 [DOX, doxorubicin, reference compound]
- level of Bax protein (Bax): 259.2 pg/mL
- IC50 [1]: 1.09 ± 3 µg/mL (≈ 2.01 µM)
- IC50 [2]: 0.54 ± 1 µg/mL (≈ 0.994 µM)
- level of caspase-3 (caspase-3): 650 ng/mL
- IC50 [3]: 7.07 ± 1 µg/mL (≈ 13 µM)
- level of caspase-7 (caspase-7): 1.9 ng/mL

Compound: CC1(C(=O)NCC(=O)NCC(=O)NCC(=O)NCC(=O)O)CCC2(C)CCC3(C)C(=CC(=O)C4C5(C)CCC(O)C(C)(C)C5CCC43C)C2C1 (stereo not drawn) [Compound 5, 1-(10-Hydroxy-2,4a,6a,6b,9,9,12a-heptamethyl-13-oxo-1,2,3,4,4a,5,6,6a,6b,7,8,8a,9,10,11,12,12a,12b,13,14b-icosahydropicen-2-yl)-1,4,7,10-tetraoxo-2,5,8,11-tetraazatridecan-13-oic Acid] (X1-GGGG-OH)
- Diameter of Inhibition Zone (mm) [4]: 10 ± 0.17 mm
- level of Bax protein (Bax): 249.9 pg/mL
- Diameter of Inhibition Zone (mm) (Candida albicans): 13 ± 0.17 mm
- IC50 [1]: 5.2 ± 0.8 µg/mL (≈ 7.44 µM)
- cytotoxicity percentage ([1]; human, 10 µg/mL): 96.16%
- Diameter of Inhibition Zone (mm) [5]: 18 ± 0.23 mm
- Diameter of Inhibition Zone (mm) [6]: 15 ± 0.15 mm
- cytotoxic effect on normal cells BJ-1 [7]: 20%
- IC50 (Tubulin Beta (TUBb)): 0.848 µM
- Diameter of Inhibition Zone (mm) [8]: 16 ± 0.12 mm
- Diameter of Inhibition Zone (mm) [9]: 17 ± 0.16 mm
- level of caspase-3 (caspase-3): 477 ng/mL
- level of Bcl-2 (Bcl-2): 3.40 ng/mL
- IC50 [3]: 5 ± 0.3 µg/mL (≈ 7.15 µM)
- rise of p53 level versus untreated MCF-7 (Human p53; MCF-7, 5 μg/mL, 24 h): approximately six-fold
- level of p53 (Human p53; MCF-7 cells treated at IC50 5 μg/mL for 24 h, untreated 111.07 Pg/mL): 679.8 pg/mL
- Diameter of Inhibition Zone (mm) (Micrococcus Luteus): 30 ± 0.15 mm
- DNA fragmentation, times the percent in untreated cells (MCF-7 cells): about 4.5 fold
- percentage of DNA fragmentation (MCF-7 cells; untreated 7.8%): 35%
- caspase-7 level elevation versus untreated cells (caspase-7; MCF-7, 5 μg/mL, 24 h): about a three-fold
- level of caspase-7 (caspase-7): 0.9 ng/mL
